From patent US7741520B2, “Sulfonanilide analogs as selective aromatase modulators (SAMs)” (The Ohio State University Research Foundation, priority 2006, dated 2010) come the findings set out here.

The subject of one data set is SK-BR-3 cells. Put plainly: Cell viability analysis (MTT assay) in SK-BR-3 cells. The settings on record: 10 μM (FIG. 15). The format is cell-based, human. The method, then: Cell Viability Analysis. The effect of nimesulides derivatives on SK-BR-3 cell viability was assessed by using the 3-(4,5-dimethylthiazol-2-yl)-2,5-diphenyl-2H-tetrazolium bromide assay in six replicates. Cells were grown in custom media in 96-well, flat-bottomed plates for 24 h, and were exposed to various concentrations of nimesulide derivatives dissolved in DMSO (final concentration ≦0.1%) in define media for different time intervals. Controls received DMSO vehicle at a concentration equal to that in drug-treated cells. The medium was removed, replaced by 200 μl of 0.5 mg/ml of 3-(4,5-dimethylthiazol-2-yl)-2,5-diphenyl-2H-tetrazolium bromide in fresh media, and cells were incubated in the CO2 incubator at 37° C. for 2 h. Supernatants were removed from the wells, and the reduced 3-(4,5-dimethylthiazol-2-yl)-2,5-diphenyl-2H-tetrazolium bromide dye was solubilized in 200 μl/well DMSO. Absorbance at 570 nm was determined on a plate reader.
A general note: Tetrazolium dyes change colour on reduction, which living cells bring about.

The test system of data set [1] is aromatase activity in SK-BR-3 breast cancer cells. The data set is described as follows: Tritiated water-release assay in SK-BR-3 cells (additional compounds). In kind it is cell-based, human. Conditions: for IC50: dose-response (FIG. 13), read-out: IC50 (μM), suppression of aromatase activity in SK-BR-3 breast cancer cells. As for the experimental part:
Cell Culture. AR and SK-BR-3 cells were obtained from ATCC (Rockville, Md.). SK-BR-3 cells were maintained in phenol red-free custom media (MEM, Earle's salts, 1.5× amino acids, 2× non-essential amino acids, L-glutamine, 1.5× vitamins, Gibco BRL) supplemented with 10% fetal bovine serum (FBS), 2 mM L-glutamine and 20 mg/L gentamycin. […] Fetal bovine serum was heat inactivated for 30 min in a 56° C. water bath before use. Cell cultures were grown at 37° C., in a humidified atmosphere of 5% CO2 in a Hereaus CO2 incubator. For all experiments, cells were plated in 6 well plates and grown to subconfluency. Before treatment, the media was changed to a defined one containing DMEM/F12 media (Sigma) with 1.0 mg/mL human albumin (OSU Hospital Pharmacy), 5.0 mg/L human transferin and 5.0 mg/L bovine insulin.
Tritiated water-release assay in JAR and SK-BR-3 cell lines. Measurement of aromatase enzyme activity was based on the tritium water release assay. Cells in six well plates were treated with 0.1% DMSO (control), and inhibitors at the indicated concentrations. After 24 hours, the cells were incubated 3 hours (SK-BR-3 cells) or 1 hour (JAR cells) with fresh media along with 100 nM [1β-^3H]-androst-4-ene-3,17-dione (1 μCi). Subsequently, the reaction mixture was removed, and proteins were precipitated using 10% trichloroacetic acid at 42° C. for 20 min. After a brief centrifugation, the media was extracted three times with an equal amount of chloroform to remove remaining substrate and further treated with dextran-treated charcoal. After centrifugation, a 250-μl aliquot containing the product was counted in 5 ml of liquid scintillation mixture. Results were corrected for blanks and for the cell contents of culture flasks, and results were expressed as picomoles of ^3H2O formed per hour incubation time per million live cells (pmol/h/10^6 cells). To determine the amount of cells in each flask, the cells were lysed and analyzed using the diphenylamine DNA assay adapted to a 96-well plate. IC50 sigmoidal dose-response data were analyzed with Microsoft Excel and the Graphpad Prism (Version 3.0) program.
Diphenylamine DNA Assay To determine the amount of viable cells in each flask, the cells were lysed with 0.5N NaOH aqueous solution and analyzed using the diphenylamine DNA assay adapted to a 96-well plate. DNA standards (0-30 μg) were prepared using double-stranded DNA reconstituted in PBS and added in triplicates directly to the wells. A uniform cell suspension was prepared from the 6 well plate in 300 μl 0.5N NaOH aqueous solution, and 60 μl of the unknown samples were added in triplicates to separate wells. […] This solution (60 μl) was added to each well along with 100 μl of a 4% diphenylamine solution in glacial acetic acid. The plates were incubated at 37° C. for 24 hours. After centrifugation, 100 μl supernatant of each well was transferred to a new 96 well plate, and the OD595 was measured using a microplater reader. The DNA concentration was determined by extrapolation to the standard curve and the amount of cells/well was calculated using the equation: 1 cell≈7 pg DNA.

As usually defined, the IC50 is the concentration that inhibits the measured activity by half. For the compound `CN(c1ccc([N+](=O)[O-])cc1OCc1ccccc1)S(C)(=O)=O` [Compound 26f, N-methyl-N-(2-benzyloxy-4-nitrophenyl) methanesulfonamide], the “cell cytotoxicity (MTT)” value with SK-BR-3 cells is “did not cause significant cell cytotoxicity”. Besides, in data set [1], the 50% inhibitory concentration (IC50) stood at 0.81 ± 0.29 µM.

A word on the melting point: it is the temperature, or range, at which the solid turns liquid. For the compound `CN(c1ccc([N+](=O)[O-])cc1OCc1ccccc1-c1ccccc1)S(C)(=O)=O` [Compound 29c, N-methyl-N-[2-(2′-phenylbenzyloxy)-4-nitrophenyl]methanesulfonamide], the melting point was in the range of 128 to 129 °C. Moreover, in the data set with SK-BR-3 cells, the “cell cytotoxicity (MTT)” value was “did not cause significant cell cytotoxicity”. For the same compound, the IC50 in data set [1] was found to be 0.33 ± 0.15 µM. Moreover, in data set [1] (from IC50 values), the “increase in activity compared with nimesulide” value was “eighty fold increase”.

Consider `CN(c1ccc([N+](=O)[O-])cc1OCc1ccc([N+](=O)[O-])cc1)S(C)(=O)=O` [Compound 27c, N-methyl-N-[2-(4′-nitrobenzyloxy)-4-nitrophenyl]methanesulfonamide], for which, in the data set with SK-BR-3 cells, the “cell cytotoxicity (MTT)” value is given as “did not cause significant cell cytotoxicity”. Also, in data set [1], the IC50 amounted to 0.49 ± 0.14 µM.

As for `Cc1ccc(COc2cc([N+](=O)[O-])ccc2N(C)S(C)(=O)=O)cc1` [Compound 30c, N-methyl-N-[2-(4′-methylbenzyloxy)-4-nitrophenyl]methanesulfonamide], the melting point lay within 96 to 98 °C. For the same compound, the “cell cytotoxicity (MTT)” value in the data set with SK-BR-3 cells is “did not cause significant cell cytotoxicity”. Further, the IC50 in data set [1] amounted to 2.33 ± 0.66 µM.

On to `CN(c1ccc([N+](=O)[O-])cc1OCc1ccc(F)cc1)S(C)(=O)=O` [Compound 33c, N-methyl-N-[2-(4′-fluorobenzyloxy)-4-nitrophenyl]methanesulfonamide], for which the melting point lay within 168 to 169 °C. The “cell cytotoxicity (MTT)” value in the data set on SK-BR-3 cells is “did not cause significant cell cytotoxicity”. In data set [1], the half-maximal inhibitory concentration (IC50) came to 1.78 ± 0.63 µM.

Turning to `CN(c1ccc([N+](=O)[O-])cc1OCc1ccc2ccccc2c1)S(C)(=O)=O` [Compound 28c, N-methyl-N-[2-(β-naphthylmethoxy) 4-nitrophenyl]methanesulfonamide], the melting point lay in the range of 119 to 121 °C. In addition, the “cell cytotoxicity (MTT)” value in the data set with SK-BR-3 cells is reported as “did not cause significant cell cytotoxicity”. The 50% inhibitory concentration (IC50) in data set [1] stood at 2.68 ± 0.91 µM.
